Assay results as given in US20120178720A1, “Bisphosphonates as Inhibitors of Acid Sphingomyelinase” (priority 2009, published 2012).
Read-outs that look alike come from different tables or passages of the source.

How the values were obtained:
aSMase = molecular target: T1, aSMase (Rattus norvegicus, UniProt F7ETC0); experiment: fluorescent aSMase assay with HMU-PC substrate; format: biochemical; details: for IC50: read-out: IC50 inhibition of aSMase
T1 construct: Crude preparations containing aSMase or nSMase were made from stripped rat brains; from tissue; host or cells: rat brain
T1 sequence (F7ETC0 1-626): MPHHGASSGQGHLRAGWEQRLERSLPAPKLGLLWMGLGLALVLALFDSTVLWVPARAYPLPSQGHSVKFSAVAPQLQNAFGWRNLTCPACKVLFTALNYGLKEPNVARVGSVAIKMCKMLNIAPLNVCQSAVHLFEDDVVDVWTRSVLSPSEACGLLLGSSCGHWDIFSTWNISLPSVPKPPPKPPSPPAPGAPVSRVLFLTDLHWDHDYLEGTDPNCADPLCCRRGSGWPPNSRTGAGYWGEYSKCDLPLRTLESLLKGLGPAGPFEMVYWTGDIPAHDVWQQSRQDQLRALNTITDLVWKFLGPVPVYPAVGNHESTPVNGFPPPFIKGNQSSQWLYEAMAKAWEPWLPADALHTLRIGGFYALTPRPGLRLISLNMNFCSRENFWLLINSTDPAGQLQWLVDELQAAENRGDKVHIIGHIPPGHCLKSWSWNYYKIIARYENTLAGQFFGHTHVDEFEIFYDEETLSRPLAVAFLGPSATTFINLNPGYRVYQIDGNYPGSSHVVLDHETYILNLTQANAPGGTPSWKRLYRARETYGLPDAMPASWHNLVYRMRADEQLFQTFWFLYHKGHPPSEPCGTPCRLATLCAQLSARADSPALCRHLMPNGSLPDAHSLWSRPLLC
Procedure: Enzyme assays: Crude preparations containing aSMase or nSMase were made from stripped rat brains, as described before. […] The fluorescent aSMase assay was performed in a 384-well-plate using the HMU-PC (6-Hexadecanoylamino-4-methylumbelliferyl-phosphorylcholine) substrate. Reaction mixtures consisted of 13.3 μL HMU-PC, 13.3 μL reaction-buffer (100 mM NaOAc, pH 5.2, 0.2% (w/v) Na—TC, […], 0.2% (v/v) Triton X-100) and 13.3 μL enzyme preparation. Inhibitors were added in various concentrations and the reactions were incubated for 3 hours at 37° C. in a plate reader (FLUOstar OPTIMA, BMG labtech). The fluorescence of HMU (6-Hexadecanoylamino-4-methylumbelliferone) was measured (excitation 380 nm, emission 460 nm) in real time. Assays using the radio-labelled sphingomyelin gave the same results.

[1] = test system: α-galactosidase A (α-Gal A); details: sub-inhibitory intracellular concentrations; cited from earlier work
[2] = test system: isolated, ventilated and perfused rat lungs; details: 10 μM; cited from earlier work
[3] = read-out: Inhibition [%] at 20 μM (aSMase, initial phosphonate collection)
[4] = read-out: Inhibition [%] at 20 μM (aSMase, initial bisphosphonate collection)

CCCCP(=O)(O)O [Compound 2]
inhibition at 20 µM (aSMase; [3]): 2%

NC(CP(=O)(O)O)P(=O)(O)O (centres unmarked) [Compound 3]
inhibition at 20 µM (aSMase; [3]): 47%

O=P(O)(O)CN(CP(=O)(O)O)CP(=O)(O)O [Compound 4]
inhibition at 20 µM (aSMase; [3]): 0%

O=P(O)(O)CN(CCN(CP(=O)(O)O)CP(=O)(O)O)CCN(CP(=O)(O)O)CP(=O)(O)O [Compound 5]
inhibition at 20 µM (aSMase; [3]): -5%

NCCCCCC(O)(P(=O)(O)O)P(=O)(O)O [Compound 6]
inhibition at 20 µM (aSMase; [4]): 54%

CCCCCC(N)(P(=O)(O)O)P(=O)(O)O [Compound 7a]
IC50 (aSMase): 4.66 ± 1.07 µM | inhibition at 20 µM (aSMase; [4]): 92%

CCCCCCCC(N)(P(=O)(O)O)P(=O)(O)O [Compound 7b]
aSMase inhibitory potency relative to PtdIns-3,5P2 (aSMase): about one order of magnitude more potent than PtdIns-3,5P2 | IC50 (aSMase): 0.04 ± 0.01 µM | inhibition at 20 µM (aSMase; [4]): 93%

CC(NCC(=O)O)(P(=O)(O)O)P(=O)(O)O [Compound 8]
inhibition at 20 µM (aSMase; [4]): 62%

CCCCNC(P(=O)(O)O)P(=O)(O)O [Compound 9]
inhibition at 20 µM (aSMase; [4]): 76%

O=P(O)(O)C(Nc1ccccc1)P(=O)(O)O [Compound 10]
inhibition at 20 µM (aSMase; [4]): 8%

C=CCN(CC=C)C(P(=O)(O)O)P(=O)(O)O [Compound 11]
inhibition at 20 µM (aSMase; [4]): 32%

CC(C)CN(CC(C)C)C(P(=O)(O)O)P(=O)(O)O [Compound 12]
inhibition at 20 µM (aSMase; [4]): 2%

O=P(O)(O)C(N(CO)CO)P(=O)(O)O [Compound 13]
inhibition at 20 µM (aSMase; [4]): 36%

CN(C)C(P(=O)(O)O)P(=O)(O)O [Compound 14]
inhibition at 20 µM (aSMase; [4]): 24%

CCCCCCCCCC(OP(=O)(OC)OC)P(=O)(OC)OC (centres unmarked) [Compound 16, Decyl-1-dimethylphosphate-1-dimethylphosphohonate]
activity towards aSMase (aSMase): totally inactive | IC50 (aSMase): > 100 µM

CCCCCCCCCC(OP(=O)(O)O)P(=O)(O)O (centres unmarked) [Compound 17, Decyl-1,1-phosphate phosphonate]
activity towards aSMase (aSMase): as active as its bisphosphonate analogue 15b | IC50 (aSMase): 0.35 ± 0.06 µM

CCCCCC(N(C)C)(P(=O)(O)O)P(=O)(O)O [Compound 19a]
IC50 (aSMase): 9.5 ± 4 µM

CCCCCCCCCC(N(C)C)(P(=O)(O)O)P(=O)(O)O [Compound 19b, 1-dimethylaminodecyl-1,1-bisphosphonicacid]
IC50 (aSMase): 0.18 ± 0.03 µM

O=P(O)(O)C(O)(Cn1ccnc1)P(=O)(O)O [Compound 20, zoledronic acid, reference compound]
IC50 (aSMase): 5.08 ± 0.74 µM

OC[C@H]1NC[C@H](O)[C@@H](O)[C@H]1O [DGJ, 1-deoxy-galactonojirimycin]
stimulation of α-Gal A in cells [1]: seven- to eight-fold

CN(C)CCCN1c2ccccc2CCc2ccccc21 [imipramine]
attenuation of PAF-induced oedema formation [2]: attenuated but not completely prevented oedema formation
